Experimental data published in patent publication US7622128B2, “Porphyromonas gingivalis 1435/1449 LPS as an immune modulator” (priority 2005, dated 2009).

System: mouse bone marrow cells
Test: Activation of bone marrow cells from TLR knockout mice (intracellular TNF-α staining, FACS)
Format: cell-based
Conditions: TLR2−/−, TLR4−/− and TLR2/4−/− cells
Experimental: The ability of this P. gingivalis LPS preparation to activate mouse bone marrow cells obtained from TLR2^−/−, TLR4^−/−, and TLR2/4^−/− knockout mice was examined to determine if endogenous TLR2 and TLR4 were utilized. Activation was determined by intracellular TNF-α staining and fluorescence-activated cell sorter analysis.

Pam3CSK4
TLR usage in bone marrow cells of knockout mice: utilized their respective cognate TLR
